The record followed here is patent publication EP2739296B1, “PLANT MATERIAL FROM OXYDENDRUM ARBOREUM FOR COSMETIC USE” (Sederma, priority 2011, dated 2013).

Format in all cases: cell-based
One assay has as its system collagen I. Kind of assay: Collagen I synthesis by normal human fibroblasts (immuno-labeling). The settings on record: positive control, concentration not given; NHF, 7 days; p<0.01. As to the method: Normal human fibroblasts (NHF) are cultivated in plate MW24 for 24 hours. The cells are in contact or not of test products at various concentrations for 7 days. The synthesis of collagen I is then quantified by immuno-labeling fixed on the layer. Table 7: increase of collagen I on NHF in the presence of the extract of Oxydendrum arboretum cell culture compared with control. (n=4 wells/ 20 photos)

The test system of the next assay is Human melanocytes. As to the kind of experiment: Melanin synthesis in human melanocytes. The settings on record: positive control, concentration not given; 5 days of culture; n=5; p<0.01. As to the method: Human melanocytes were seeded in 24-well plates. After 24 h of attachment, the cells are in contact with the test products. After 5 days of culture, the layers are rinsed, the total melanins are extracted in sodium hydroxide and assayed spectrophotometrically at 490 nm. For tyrosinase, an identical culture protocol is followed and then the enzyme is extracted from the cells and DOPA oxidase activity is measured spectrophotometrically at 37°C with a solution of L-DOPA to 0.2%. The data are normalized using a viability assay. Table 9: inhibition of melanogenese in the presence of the extract of Oxydendrum arboreum cell culture compared with control. (n=5)

In the next assay the target is T1, tyrosinase (Homo sapiens, UniProt P14679).
T1 sequence (P14679 19-529): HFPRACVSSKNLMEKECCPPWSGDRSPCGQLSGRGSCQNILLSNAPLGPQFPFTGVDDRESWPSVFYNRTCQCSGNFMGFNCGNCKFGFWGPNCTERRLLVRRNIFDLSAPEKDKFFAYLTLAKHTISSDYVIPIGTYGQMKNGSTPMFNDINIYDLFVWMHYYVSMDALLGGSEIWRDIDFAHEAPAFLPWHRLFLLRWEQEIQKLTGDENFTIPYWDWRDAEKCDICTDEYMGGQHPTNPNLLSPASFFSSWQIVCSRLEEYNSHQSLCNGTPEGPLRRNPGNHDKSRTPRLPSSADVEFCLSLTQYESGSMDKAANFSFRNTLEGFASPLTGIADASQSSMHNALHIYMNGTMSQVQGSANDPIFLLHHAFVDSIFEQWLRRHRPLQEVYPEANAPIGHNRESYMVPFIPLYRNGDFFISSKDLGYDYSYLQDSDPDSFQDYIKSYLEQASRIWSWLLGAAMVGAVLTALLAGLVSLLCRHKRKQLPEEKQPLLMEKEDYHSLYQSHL
As to the kind of experiment: Tyrosinase (DOPA oxidase) activity extracted from human melanocytes. The settings on record: positive control, concentration not given; 5 days of culture; n=5; p<0.01.

Turning to `O=C1O[C@H]([C@@H](O)CO)C(O)=C1O` [Vitamin C], the “Collagen I Synthesis % change / control” value in the assay on collagen I is listed as “+236% ; p<0.01”.
Consider `OC[C@H]1O[C@@H](Oc2ccc(O)cc2)[C@H](O)[C@@H](O)[C@@H]1O` [Arbutin], for which, in the assay on Human melanocytes, the “Melanin (% Change / Control)” value is given as -56%. The “Tyrosinase (% Change / Control)” value at tyrosinase is given as -48%.
